Laboratory results reported in patent EP4818169A1, “CRYSTAL FORM OF COMPOUND SALT, PREPARATION METHOD THEREFOR AND USE THEREOF” (Apeiron Therapeutics (Hong Kong) Ltd., priority 2024, dated 2025).
Values after ≈ are worked out from the molar mass of the structure shown.

How the values were obtained:
[1] = Hygroscopicity by dynamic vapor sorption (DVS) test; type: physicochemical; details: for hygroscopic weight gain: DVS, 25°C, from 0% RH to 80% RH; for crystalline form after the DVS test: XRPD before and after DVS test
Method: Moisture adsorption and desorption data were obtained using a dynamic vapor sorption device (Model TA Discovery SA). Samples were equilibrated at 25°C/0% RH for 300 min at the start of the experiment. Thereafter, humidity was varied from 0% to 95% RH in 5% RH increments, with nitrogen used to control and maintain the humidity. Equilibration during testing was defined as a mass change rate of < 0.02% per minute over 10 min, with a maximum equilibration time of 120 min.
From 0% RH to 80% RH, the hygroscopic weight gain was approximately 0.25%, indicating very low hygroscopicity.

[2] = Mechanical stability: jet milling; type: physicochemical; details: feed and milling pressure 5.5 bar, 23 °C; XRPD
Method: The milled powder was then analyzed by XRPD and PLM, with results shown in Figure 27 and Figure 28, respectively.

[3] = Stability of the crystalline form in the formulation (tablet compression with microcrystalline cellulose); type: physicochemical; details: 50% (w/w) with microcrystalline cellulose PH102, tablets compressed at 4.2 kN and 9.2 kN; XRPD
Method: Equal amounts of maleate crystalline form A and microcrystalline cellulose PH102 were weighed to prepare a powder formulation comprising 50% (w/w) maleate crystalline form A, and the two components were mixed thoroughly.
A total of 200 mg of the uniformly mixed powder was transferred into an 8 mm-diameter die of a rotary tablet press. One tablet was compressed at 4.2 kN and another at 9.2 kN.
The resulting tablets were characterized for weight and hardness.

[4] = Mechanical stability: pressurization method; type: physicochemical; details: 40 MPa held for 1 min, 5 mm die; XRPD
Method: Pressurization method: Maleate crystalline form A was weighed and transferred into a 5 mm-diameter die. The upper piston was then manually driven down into the die until a pressure of 40 MPa was reached and held for 1 min. Subsequently, the sample was removed and manually ground into a powder. Finally, the resulting powder was analyzed by XRPD.

[5] = Physicochemical stability on open storage (XRPD and HPLC); details: for Crystalline Form Change: merged cell for all storage conditions (40°C/75%RH, 60 °C, 25°C/60%RH, open) and times (2 and 4 weeks), XRPD
Method: The high performance liquid chromatography (HPLC) method for determining enantiomeric excess (%) used in the present application is shown in Table 5.
The purity testing method described in the present application is shown as follows.
(§1) For chemical stability studies, two open samples were prepared at each time point for each condition. Approximately 2 mg of maleate crystalline form A was transferred into a 20 mL glass vial, which was then covered with perforated aluminum foil to serve as an open sample. Samples were stored at 25°C/60% RH, 40°C/75% RH, and 60°C.
as §1, with “For physical” for “For chemical”, “Approximately 10” for “Approximately 2”, “was” for “was then”
All samples were stored for 4 weeks under the specified storage conditions. At predetermined time points (initial, 2 weeks, and 4 weeks), the corresponding samples were withdrawn and subject to chemical and physical evaluations, respectively. The physicochemical stability was assessed by XRPD and HPLC.
as §1, with “p-toluenesulfonate” for “maleate”
as §1, with “For physical” for “For chemical”, “Approximately 10” for “Approximately 2”, “of p-toluenesulfonate” for “of maleate”, “was” for “was then”, “and 60°C, respectively.” for “and 60°C.”

[6] = Dynamic solubility in different media (HPLC); type: physicochemical; details: for Crystalline Form Change / Solubility / pH: 24 h; for Crystalline Form Change: XRPD of precipitated solids; for Solubility: 37°C; for solubility at 24 h: 37 °C, thermodynamic from solid; for pH: pH of supernatant
Method: The preparation method of simulated gastrointestinal fluid involved in the present disclosure is: SGF: Transfer 2.02 g of sodium chloride into a 1000 mL beaker and add 950 mL of purified water to dissolve. Next, adjust the pH to 1.2 with 12 N hydrochloric acid. Transfer the solution to a 1000 mL volumetric flask and make up to 1000 mL with purified water.
FeSSIF: Transfer 4.04 g of sodium hydroxide, 8.65 g of acetic acid, and 11.87 g of sodium chloride into a 1000 mL volumetric flask, and dissolve with 950 mL of purified water. Titrate the obtained solution to pH 5.0 with 1M sodium hydroxide or 1M hydrochloric acid aqueous solution, and then make up to 1000 mL with purified water. Finally, weigh 11.20 g of SIF powder, add it to the above 1000 mL of pH 5.0 solution, and stir magnetically until clear.
(§2) A total of 10 mg of maleate crystalline form A was transferred into a dry, clean 4 mL glass vial. Then, 1 mL of simulated gastric fluid (SGF), fed state simulated intestinal fluid (FeSSIF), or purified water was added to the vial. All vials were placed on a shaker and agitated at 200 rpm at 37°C.
At the predetermined time point (24 h), 200 µL of the sample was withdrawn from the vial into a centrifuge tube and centrifuged at 90,000 rpm for 5 min. An appropriate amount of the supernatant was then diluted and analyzed by HPLC to determine the solubility.
The remaining 800 µL of suspension in the vial was centrifuged at 8000 rpm for 10 min. The pH of the resulting supernatant was measured, and the precipitated solids were vacuum-dried at 40°C for approximately 16 h. The dried precipitated solids were then characterized by X-ray powder diffraction.
as §2, with “p-toluenesulfonate” for “maleate”
At the predetermined time point (24 h), 200 µL of the sample was withdrawn from the vial into a centrifuge tube and centrifuged at 90,000 rpm for 5 min. An appropriate amount of the supernatant was then diluted and analyzed by high performance liquid chromatography to determine the solubility.

CN(C(=O)c1ccc2nc(N)c3cncn3c2c1)[C@@H]1COc2cc(C(F)(F)F)ccc21 [Maleate crystalline form A, (S)-4-amino-N-methyl-N-(6-(trifluoromethyl)-2,3-dihydrobenzofuran-3-yl)imidazo[1,5-a]quinoxaline-8-carboxamide]
hygroscopic weight gain [1]: approximately 0.25% | crystalline form after the DVS test [1]: did not change | crystalline form after jet milling [2]: retained its crystalline form | crystallinity in the formulation [3]: remained relatively stable | crystalline form after pressurization [4]: retained its crystalline form | Appearance ([5]; 25°C/60%RH (Open), 2 weeks): Off-white powder | Purity (%) ([5]; 25°C/60%RH (Open), 2 weeks): 99.68% | ee (%) ([5]; 25°C/60%RH (Open), 2 weeks): 100.00% | Appearance ([5]; 25°C/60%RH (Open), 4 weeks): Off-white powder | Purity (%) ([5]; 25°C/60%RH (Open), 4 weeks): 99.67% | ee (%) ([5]; 25°C/60%RH (Open), 4 weeks): 100.00% | Appearance ([5]; 40°C/75%RH (Open), 2 weeks): Off-white powder | Purity (%) ([5]; 40°C/75%RH (Open), 2 weeks): 99.69% | ee (%) ([5]; 40°C/75%RH (Open), 2 weeks): 100.00% | Appearance ([5]; 40°C/75%RH (Open), 4 weeks): Off-white powder | Purity (%) ([5]; 40°C/75%RH (Open), 4 weeks): 99.67% | ee (%) ([5]; 40°C/75%RH (Open), 4 weeks): 100.00% | Appearance ([5]; 60 °C (Open), 2 weeks): Off-white powder | Purity (%) ([5]; 60 °C (Open), 2 weeks): 99.69% | ee (%) ([5]; 60 °C (Open), 2 weeks): 100.00% | Appearance ([5]; 60 °C (Open), 4 weeks): Off-white powder | Purity (%) ([5]; 60 °C (Open), 4 weeks): 99.67% | ee (%) ([5]; 60 °C (Open), 4 weeks): 100.00% | Appearance ([5]; Initial): Off-white powder | Purity (%) ([5]; Initial): 99.66% | ee (%) ([5]; Initial): 100.00% | Crystalline Form Change [5]: None | Crystalline Form Change ([6]; FeSSIF): None | Solubility ([6]; H2O): 42.12 µg/mL | Crystalline Form Change ([6]; H2O): None | Crystalline Form Change ([6]; SGF): None | solubility at 24 h ([6]; fed state simulated intestinal fluid (FeSSIF), pH 5, fessif, FeSSIF): 258 µg/mL | pH ([6]; FeSSIF): 4.83 | pH ([6]; H2O): 4.17 | pH ([6]; SGF): 0.96 | solubility at 24 h ([6]; simulated gastric fluid (SGF), pH 1.2, simulated gastric fluid, SGF): 443 µg/mL

CN(C(=O)c1ccc2nc(N)c3cncn3c2c1)[C@@H]1COc2cc(C(F)(F)F)ccc21 [p-toluenesulfonate crystalline form A, (S)-4-amino-N-methyl-N-(6-(trifluoromethyl)-2,3-dihydrobenzofuran-3-yl)imidazo[1,5-a]quinoxaline-8-carboxamide]
hygroscopic weight gain [1]: approximately 0.37% | crystalline form after the DVS test [1]: did not change | Appearance ([5]; 25°C/60%RH (Open), 2 weeks): Off-white powder | Purity (%) ([5]; 25°C/60%RH (Open), 2 weeks): 99.83% | ee (%) ([5]; 25°C/60%RH (Open), 2 weeks): 100.00% | Appearance ([5]; 25°C/60%RH (Open), 4 weeks): Off-white powder | Purity (%) ([5]; 25°C/60%RH (Open), 4 weeks): 99.84% | ee (%) ([5]; 25°C/60%RH (Open), 4 weeks): 100.00% | Appearance ([5]; 40°C/75%RH (Open), 2 weeks): Off-white powder | Purity (%) ([5]; 40°C/75%RH (Open), 2 weeks): 99.84% | ee (%) ([5]; 40°C/75%RH (Open), 2 weeks): 100.00% | Appearance ([5]; 40°C/75%RH (Open), 4 weeks): Off-white powder | Purity (%) ([5]; 40°C/75%RH (Open), 4 weeks): 99.80% | ee (%) ([5]; 40°C/75%RH (Open), 4 weeks): 100.00% | Appearance ([5]; 60 °C (Open), 2 weeks): Off-white powder | Purity (%) ([5]; 60 °C (Open), 2 weeks): 99.66% | ee (%) ([5]; 60 °C (Open), 2 weeks): 100.00% | Appearance ([5]; 60 °C (Open), 4 weeks): Off-white powder | Purity (%) ([5]; 60 °C (Open), 4 weeks): 99.50% | ee (%) ([5]; 60 °C (Open), 4 weeks): 100.00% | Appearance ([5]; Initial): Off-white powder | Purity (%) ([5]; Initial): 99.81% | ee (%) ([5]; Initial): 100.00% | Crystalline Form Change [5]: None | Solubility ([6]; FeSSIF): 365.38 µg/mL (≈ 855 µM) | Crystalline Form Change ([6]; FeSSIF): None | Solubility ([6]; H2O): 248.78 µg/mL (≈ 582 µM) | Crystalline Form Change ([6]; H2O): None | Solubility ([6]; SGF): 293.98 µg/mL (≈ 688 µM) | Crystalline Form Change ([6]; SGF): None | pH ([6]; FeSSIF): 4.78 | pH ([6]; H2O): 3.19 | pH ([6]; SGF): 0.98
